{"source": "patent US6960594B2", "about": "“Thiophene and furan 2,5-dicarboxamides useful in the treatment of cancer” (Shire BioChem Inc., priority 1998, dated 2005)", "key": {"[1]": {"molecular_target": "T1, α5β1 (Homo sapiens, UniProt P05556+P08648)", "T1 construct": "Cells HT29, K562, or K562 transfected with αvβ3; endogenous in cells; host or cells: K562", "T1 sequence (P08648 42-894 limits assumed)": "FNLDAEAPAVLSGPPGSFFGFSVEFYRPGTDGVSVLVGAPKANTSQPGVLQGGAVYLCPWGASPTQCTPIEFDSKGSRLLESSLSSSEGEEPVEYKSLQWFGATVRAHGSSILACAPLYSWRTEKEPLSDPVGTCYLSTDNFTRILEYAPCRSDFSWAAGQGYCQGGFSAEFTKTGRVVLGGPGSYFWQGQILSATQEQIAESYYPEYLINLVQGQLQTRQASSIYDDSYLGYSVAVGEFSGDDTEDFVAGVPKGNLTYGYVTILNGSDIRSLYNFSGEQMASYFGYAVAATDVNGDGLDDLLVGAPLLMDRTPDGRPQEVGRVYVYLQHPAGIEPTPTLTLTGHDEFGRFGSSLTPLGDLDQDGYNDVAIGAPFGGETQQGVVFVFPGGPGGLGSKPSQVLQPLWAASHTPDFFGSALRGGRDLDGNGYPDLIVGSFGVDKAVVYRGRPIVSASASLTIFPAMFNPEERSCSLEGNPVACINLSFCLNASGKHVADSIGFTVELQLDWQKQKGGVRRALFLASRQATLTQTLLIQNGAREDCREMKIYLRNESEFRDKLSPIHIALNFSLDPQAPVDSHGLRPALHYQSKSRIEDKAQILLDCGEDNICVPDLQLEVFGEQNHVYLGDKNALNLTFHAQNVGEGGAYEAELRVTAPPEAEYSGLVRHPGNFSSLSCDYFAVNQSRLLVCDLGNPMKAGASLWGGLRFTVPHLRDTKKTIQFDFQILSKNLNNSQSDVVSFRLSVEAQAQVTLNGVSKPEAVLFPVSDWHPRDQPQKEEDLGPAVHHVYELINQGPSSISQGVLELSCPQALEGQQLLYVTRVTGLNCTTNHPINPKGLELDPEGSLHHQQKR", "T1 sequence (P08648 895-1049 partner limits assumed)": "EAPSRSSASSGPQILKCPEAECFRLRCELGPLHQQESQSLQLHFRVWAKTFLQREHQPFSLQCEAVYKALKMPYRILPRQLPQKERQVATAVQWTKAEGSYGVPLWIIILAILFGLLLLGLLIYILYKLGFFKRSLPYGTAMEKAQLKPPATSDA", "T1 sequence (P05556 21-798)": "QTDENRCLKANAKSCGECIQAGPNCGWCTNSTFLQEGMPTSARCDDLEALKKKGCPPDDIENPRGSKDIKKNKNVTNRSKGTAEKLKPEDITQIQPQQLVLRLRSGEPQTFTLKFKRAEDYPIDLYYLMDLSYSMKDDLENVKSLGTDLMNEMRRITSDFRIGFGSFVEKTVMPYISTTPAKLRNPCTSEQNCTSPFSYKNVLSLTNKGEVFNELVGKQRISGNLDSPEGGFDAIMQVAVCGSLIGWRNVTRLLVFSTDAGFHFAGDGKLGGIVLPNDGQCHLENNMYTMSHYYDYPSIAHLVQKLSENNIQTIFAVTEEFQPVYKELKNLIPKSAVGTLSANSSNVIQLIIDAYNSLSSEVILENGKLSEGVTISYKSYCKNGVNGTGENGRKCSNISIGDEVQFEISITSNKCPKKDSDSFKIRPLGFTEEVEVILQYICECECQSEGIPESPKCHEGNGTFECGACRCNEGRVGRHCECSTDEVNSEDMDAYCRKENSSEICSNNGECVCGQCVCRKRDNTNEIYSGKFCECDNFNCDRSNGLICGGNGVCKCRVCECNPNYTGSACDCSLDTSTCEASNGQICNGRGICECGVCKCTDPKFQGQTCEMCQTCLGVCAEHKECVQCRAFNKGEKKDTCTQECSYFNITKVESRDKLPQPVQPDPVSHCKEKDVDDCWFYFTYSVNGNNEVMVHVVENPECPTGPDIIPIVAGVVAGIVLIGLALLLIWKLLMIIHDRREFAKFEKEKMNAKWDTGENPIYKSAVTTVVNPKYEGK", "experiment": "Cell adhesion assay, K562 on fibronectin", "type": "cell-based", "settings": "K562 cells, adhesion to fibronectin, 1 hour", "description": "(§1) The wells of 96-well plates (Immunolon) were coated, by incubation overnight at 4° C., with 5 ug/mL vitronectin, 2 ug/mL osteopontin, or fibronectin or 10 mg/mL BSA in PBS. The protein solution was flicked out and the wells were blocked with 10 mg/mL BSA (0.1 mL) for 1-2 hours at 37° C. Cells HT29, K562, or K562 transfected with αvβ3 (Blystone et al., 1994) were loaded with a fluorescent marker, 5-chloromethylfluorescein diacetate (Molecular Probes, Eugene, Oreg.) for 1 hour at 37° C., then incubated in fresh medium without the fluorescent marker for 1 hour. Cells were lifted with trypsin-EDTA and washed two times with Hank's balanced salt solution minus cations (Sigma) supplemented with 1 mM MgCl2 Cells (75,000 cells/well) were added to coated plates in triplicate and allowed to attach at 37° C. for 1 hour in the presence or absence of specific antibodies (5 ug/mL) or 10-fold dilutions of compounds of interest starting at 10 uM. Nonadherent cells were removed by gentle washing twice with PBS. The adherent cells were solubilized with 1% triton x-100 and detected using a fluorescence plate reader (DYNEX Technologies). The number of attached cells was calculated based upon standard curves for each cell line used in the experiment. Non-specific cell attachment (attachment to wells coated with BSA) was always less than 5%."}, "[2]": {"test_system": "HT29", "experiment": "Cell proliferation and cytotoxicity MTT assay, HT29", "type": "cell-based", "settings": "Homo sapiens, HT-29, 72 hours culture", "description": "The wells of microtiter plates were seeded with 2000 cells/well T24, 2500 cells/well HT29 or 5000 cells/well HMVEC (Cell Systems) in 100 uL, followed by an overnight culture for cell adhesion. The next day, the media is supplemented with 100 uL of 10-fold dilution of compound of interest starting at 10 uM. Following culture for 72 hours, 3-(4,5-dimethyl-2-thiazolyl)-2,5-diphenyltetrazolium bromide (MTT; Sigma) at 2 mg/mL was added to each well (50 uL/well) and further incubated for 4 hours at 37° C. The medium was flicked out and 200 uL of a 1:1 solution of ethanol:acetone followed by 25 uL of glycine buffer (0.1 M glycine, 0.1M NaCl, pH 10.5) is added and the color measured by the absorbance at 570 nm."}, "[3]": {"test_system": "Human non small-cell lung cancer cell line H460", "experiment": "Inhibition of metastasis in angiomouse/metamouse human lung cancer model of H460", "type": "in vivo, athymic BALB/c nude mice", "description": "Male and female athymic BALB/c nude mice between 4 and 5 weeks of age were used. The animals were bred and maintained in an HEPA-filtered environment with cages, food and bedding sterilized by autoclaving. The breeding pairs were obtained from the Charles River Laboratories (Wilmington, Mass.). The animal diets were obtained from Harlan Teklab (Madison, Wis.). Ampicillin (Sigma, St Louis, Mo.) 5.0% (v/v) was added to the autoclaved drinking water.\nCompound VII was tested and AGM-1470 (chloroacetyl-(3R,4S,5S,6R)-5-methoxy-4-[(2R,3R)-2-methyl-3-(3-methyl-2-butenyl)oxiranyl]-1-oxaspiro[2.5]oct-6-yl ester carbamic acid) was used as a positive control. [drawing 51] The compounds were dissolved using PEG400 with heating and sonicatin. The solutions were then diluted with saline to obtain the desired concentrations (30%/70%) and stored at −20° C.\nHuman non small-cell lung cancer cell line H460 with expression of green fluorescent protein was obtained from the National Cancer Institute. The cells were transfected with vectors carrying the green fluorescent protein (GFP) gene. The cell line was propagated by subcutaneous implantation in nude mice.\nTest animals were transplanted by surgical orthotopic implantation (SOI) using fragments harvested from subcutaneaous tumor stock animals. The animals were anesthetized with isoflurane and the surgical area was sterilized using iodine solution and alcohol. A left thoracotomy was made along the 4th intercostal space using a pair of scissors. Two pieces of H460 tumor tissue of one cubic millimiter each were sutured to the left lung using an 8-0 nylon surgical suture. The thorax was closed using a sterile 6-0 silk suture. A sterile 3-cc syringe with a 25-gauge needle was used to remove the air and inflate the lung. All surgical and animal manipulations and procedures were conducted under HEPA-filtered laminar flow hoods.\nExtra numbers of mice were transplanted to compensate for postsurgical losses. The orthotopically transplanted animals used were selected to establish groups of similar mean body weight. Groups for each of the cohort conditions wre randomly chosen. The cohort was grouped as follows. A total of 10 mice were used for each dosage regimen. Administration of test compounds and vehicle by subcutaneous injection was begun three days after the orthotopic implantation.\nTwo animals for each treatment group were sacrificed at day-14 after orthotopic implantation of H460. The remaining animals for each group were sacrificed at day-28 after implantation. The sacrificed animals were evaluated for primary and secondary tumors. Gross examination for distant metastasis was conducted at necropsy. Tissue samples of the primary tumor and those from relevant organs such as the lung, the liver and the lymph nodes wre processed through standards procedures of hematoxylin and eosin staining for subsequent microscopic examination.\nThe mediastinal lymph nodes, the liver and the lung in each animal were collected. The sampled tissues were sectioned and stained, then microscopically examined. The fisher-exact test was performed to compare distant metastasis to these organs in the treated and the controls. […]"}, "[4]": {"molecular_target": "T2, αvβ5 (Homo sapiens, UniProt P06756+P18084)", "T2 construct": "Cells HT29, K562, or K562 transfected with αvβ3; endogenous in cells; host or cells: HT29", "T2 sequence (P06756 31-889 limits assumed)": "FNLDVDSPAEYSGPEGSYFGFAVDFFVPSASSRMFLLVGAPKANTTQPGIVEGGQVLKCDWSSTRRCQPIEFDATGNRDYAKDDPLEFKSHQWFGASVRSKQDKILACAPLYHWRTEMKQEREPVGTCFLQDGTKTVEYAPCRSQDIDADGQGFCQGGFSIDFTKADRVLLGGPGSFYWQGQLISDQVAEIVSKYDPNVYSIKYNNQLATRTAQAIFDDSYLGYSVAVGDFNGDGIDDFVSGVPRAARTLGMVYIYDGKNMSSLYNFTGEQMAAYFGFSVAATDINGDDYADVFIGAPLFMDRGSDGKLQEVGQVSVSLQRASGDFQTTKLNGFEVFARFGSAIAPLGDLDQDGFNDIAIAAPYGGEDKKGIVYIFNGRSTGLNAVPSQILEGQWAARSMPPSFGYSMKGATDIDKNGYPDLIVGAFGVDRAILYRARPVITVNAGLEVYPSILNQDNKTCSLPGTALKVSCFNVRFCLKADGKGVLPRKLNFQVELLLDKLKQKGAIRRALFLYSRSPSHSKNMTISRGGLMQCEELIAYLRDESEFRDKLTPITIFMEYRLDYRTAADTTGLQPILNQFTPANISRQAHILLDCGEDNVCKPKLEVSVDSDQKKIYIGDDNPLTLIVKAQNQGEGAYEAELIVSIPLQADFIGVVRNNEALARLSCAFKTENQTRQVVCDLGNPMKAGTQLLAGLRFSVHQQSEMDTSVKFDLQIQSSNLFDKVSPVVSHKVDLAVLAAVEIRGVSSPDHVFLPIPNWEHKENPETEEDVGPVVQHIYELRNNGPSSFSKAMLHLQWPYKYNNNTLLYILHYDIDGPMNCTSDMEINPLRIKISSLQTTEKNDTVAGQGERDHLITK", "T2 sequence (P06756 891-1048 partner limits assumed)": "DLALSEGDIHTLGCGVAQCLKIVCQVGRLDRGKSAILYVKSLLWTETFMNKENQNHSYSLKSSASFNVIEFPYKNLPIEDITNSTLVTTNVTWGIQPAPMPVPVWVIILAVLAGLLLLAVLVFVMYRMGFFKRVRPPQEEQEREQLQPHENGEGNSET", "T2 sequence (P18084 24-799)": "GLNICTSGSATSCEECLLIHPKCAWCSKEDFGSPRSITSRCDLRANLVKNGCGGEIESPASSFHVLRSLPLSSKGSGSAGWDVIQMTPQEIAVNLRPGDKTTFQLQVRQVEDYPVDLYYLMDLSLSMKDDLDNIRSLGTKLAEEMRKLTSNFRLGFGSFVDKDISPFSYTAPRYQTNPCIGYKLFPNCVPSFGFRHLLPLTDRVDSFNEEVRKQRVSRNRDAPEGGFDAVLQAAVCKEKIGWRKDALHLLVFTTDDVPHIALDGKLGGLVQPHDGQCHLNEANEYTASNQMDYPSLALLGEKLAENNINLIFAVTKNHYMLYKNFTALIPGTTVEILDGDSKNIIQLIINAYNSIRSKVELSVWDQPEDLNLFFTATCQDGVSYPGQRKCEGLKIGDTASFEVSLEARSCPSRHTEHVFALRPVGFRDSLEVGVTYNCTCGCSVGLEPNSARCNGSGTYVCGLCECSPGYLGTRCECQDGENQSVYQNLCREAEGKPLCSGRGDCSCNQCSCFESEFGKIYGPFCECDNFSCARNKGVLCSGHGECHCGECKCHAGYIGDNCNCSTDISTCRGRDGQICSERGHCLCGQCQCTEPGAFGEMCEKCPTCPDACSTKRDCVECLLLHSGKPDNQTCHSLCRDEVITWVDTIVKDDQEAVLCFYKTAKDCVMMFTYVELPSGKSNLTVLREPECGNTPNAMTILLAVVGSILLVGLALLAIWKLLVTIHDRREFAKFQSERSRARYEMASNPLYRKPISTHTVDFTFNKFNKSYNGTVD", "experiment": "Cell adhesion assay, HT29 on vitronectin", "type": "cell-based", "description": "as §1, with “Cells HT29, K562, or K562 transfected with αvβ3 (Blystone et al., 1994) were loaded with a fluorescent marker, 5-chloromethylfluorescein diacetate (Molecular Probes, Eugene, Oreg.) for 1 hour at 37° C., then incubated in fresh medium without the fluorescent marker for 1 hour.” left out, “experiment.” for “experiment. Non-specific cell attachment (attachment to wells coated with BSA) was always less than 5%.”"}, "[5]": {"settings": "Group C, 5 mg/kg SC 2 times/day"}}, "note": "Values joined by “and” are separate entries in the source; they are usually repeats but may differ in a detail not shown here. Equal values may be shown once."}
{"smiles": "NCCCNC(=O)c1ccc(C(=O)NC(CC(=O)O)c2ccccc2)s1.O=C(O)C(F)(F)F", "note": "(stereo not shown) [Compound VII, 3-{[5-(3-Amino-propylcarbamoyl)-thiophene-2-carbonyl]-amino}-3-phenyl-propionic acid trifluoroacetic acid salt]", "values": [{"measurement": "IC50", "setting": "[1]", "result": "> 10", "unit": "µM"}, {"measurement": "IC50", "setting": "[2]", "result": "> 10", "unit": "µM"}, {"measurement": "Incidence of lung metastasis", "setting": "[3]; [5]", "result": "1/10"}, {"measurement": "Incidence of lymph node metastasis", "setting": "[3]; [5]", "result": "2/10"}, {"measurement": "Incidence of lymph node metastasis", "setting": "[3]; Group D, 50 mg/kg SC 2 times/day", "result": "3/10"}, {"measurement": "Incidence of lung metastasis", "setting": "[3]; Group D, 50 mg/kg SC 2 times/day, trifluoroacetic acid salt, 50 mg/kg", "result": "no lung metastasis and 0/10"}, {"measurement": "IC50", "setting": "[4]", "result": "> 10", "unit": "µM"}]}
